Test results taken from the NIST ThermoML archive (doi:10.1021/je200038n).

Experiments:
[1] = molar heat capacity at constant pressure; wn = mass fraction of the nth substance listed; settings: 3000 kPa, Liquid, Flow calorimetry
[2] = wn = mass fraction of the nth substance listed; settings: 3000 kPa, Liquid; for mass density: Vibrating tube method; for viscosity: Moving piston method

N#C[S-].[Na+] [sodium thiocyanate] + N
Settings	mass density [kg/m3]	molar heat capacity at constant pressure [J/K/mol]	viscosity [mPa·s]
[1], 304.17 K, w2 = 0.4992	–	63.48	–
[1], 304.17 K, w2 = 0.5988	–	72.55	–
[1], 304.17 K, w2 = 0.7013	–	76.74	–
[1], 304.17 K, w2 = 0.9	–	81.53	–
[1], 314.14 K, w2 = 0.4992	–	64.61	–
[1], 314.14 K, w2 = 0.5988	–	72.3	–
[1], 314.14 K, w2 = 0.7013	–	77.73	–
[1], 314.14 K, w2 = 0.7961	–	81.14	–
[1], 314.14 K, w2 = 0.9	–	81.93	–
[1], 324.11 K, w2 = 0.4992	–	64.64	–
[1], 324.11 K, w2 = 0.5988	–	72.13	–
[1], 324.11 K, w2 = 0.7013	–	77.86	–
[1], 324.11 K, w2 = 0.7961	–	82.16	–
[1], 324.11 K, w2 = 0.9	–	83.77	–
[1], 334.09 K, w2 = 0.4992	–	65.26	–
[1], 334.09 K, w2 = 0.5988	–	72.48	–
[1], 334.09 K, w2 = 0.7013	–	78.17	–
[1], 334.09 K, w2 = 0.7961	–	82.8	–
[1], 334.09 K, w2 = 0.9	–	85.93	–
[1], 344.07 K, w2 = 0.4992	–	65.94	–
[1], 344.07 K, w2 = 0.5988	–	73.3	–
[1], 344.07 K, w2 = 0.7013	–	79.2	–
[1], 354.06 K, w2 = 0.4992	–	67.29	–
[1], 354.06 K, w2 = 0.5988	–	74.12	–
[1], 364.15 K, w2 = 0.4992	–	70.3	–
[2], 269.4 K, w2 = 0.8921	707.7	–	–
[2], 269.8 K, w2 = 0.8921	–	–	0.27
[2], 270.4 K, w2 = 0.614	896.5	–	–
[2], 270.4 K, w2 = 0.6824	850	–	–
[2], 270.5 K, w2 = 0.4998	965.7	–	–
[2], 270.5 K, w2 = 0.797	772.7	–	–
[2], 270.6 K, w2 = 0.614	–	–	1.41
[2], 270.6 K, w2 = 0.6824	–	–	0.82
[2], 270.8 K, w2 = 0.4998	–	–	3.47
[2], 270.8 K, w2 = 0.797	–	–	0.44
[2], 274.8 K, w2 = 0.614	892.6	–	–
[2], 274.8 K, w2 = 0.797	767.4	–	–
[2], 274.9 K, w2 = 0.614	–	–	1.27
[2], 274.9 K, w2 = 0.6824	848	–	0.77
[2], 275 K, w2 = 0.4998	962.2	–	3.08
[2], 275 K, w2 = 0.797	–	–	0.4
